# Reference: US11154529B2, “Phosphaplatin liquid formulations” (Phosplatin Therapeutics Inc., priority 2016, dated 2021)
# Assay: Ready-to-use formulation stability at 25° C./60% RH, 5 mg/mL (R,R)-pyrodach-2 in 10 mM Bicarbonate Buffer at pH 8.6, 10 mL vials
# Type: physicochemical
compound,measurement,setting,value
"O=P1(O)OP(=O)(O)[O][Pt]2([NH][C@@H]3CCCC[C@H]3[NH]2)[O]1 (stereo partly drawn) [(R,R)-pyrodach-2, (R,R)-trans-1,2-cyclohexanediamine-(dihydrogenpyrophosphato)platinum(II)]",Unknown Impurities RRT~2.85,3 week,"ND (ND = Not Detected, or <0.05%)"
same,Unknown Impurities RRT~3.00,3 week,"ND (ND = Not Detected, or <0.05%)"
same,Unknown Impurities RRT~3.15,3 week,"ND (ND = Not Detected, or <0.05%)"
same,Unknown Impurities RRT~3.30,3 week,"ND (ND = Not Detected, or <0.05%)"
same,Unknown Impurities RRT~3.45,3 week,"ND (ND = Not Detected, or <0.05%)"
same,Unknown Impurities RRT~3.74,3 week,0.06%
same,Unknown Impurities RRT~4.27,3 week,"ND (ND = Not Detected, or <0.05%)"
same,Unknown Impurities RRT~4.99,3 week,"ND (ND = Not Detected, or <0.05%)"
same,pH,3 week,8.67
same,Potency (Assay),4 month,103.0%
same,Purity (% Area),4 month,95.98%
same,Unknown Impurities RRT~0.29,4 month,0.16%
same,Unknown Impurities RRT~0.42,4 month,0.96%
same,Unknown Impurities RRT~0.49,4 month,0.94%
same,Unknown Impurities RRT~0.59,4 month,0.17%
same,Unknown Impurities RRT~0.73,4 month,0.73%
same,Unknown Impurities RRT~1.82,4 month,"ND (ND = Not Detected, or <0.05%)"
same,Unknown Impurities RRT~2.85,4 month,0.17%
same,Unknown Impurities RRT~3.00,4 month,"ND (ND = Not Detected, or <0.05%)"
same,Unknown Impurities RRT~3.15,4 month,"ND (ND = Not Detected, or <0.05%)"
same,Unknown Impurities RRT~3.30,4 month,"ND (ND = Not Detected, or <0.05%)"
same,Unknown Impurities RRT~3.45,4 month,"ND (ND = Not Detected, or <0.05%)"
same,Unknown Impurities RRT~3.74,4 month,0.58%
same,Unknown Impurities RRT~4.27,4 month,0.06%
same,Unknown Impurities RRT~4.99,4 month,0.20%
same,pH,4 month,8.90
same,Potency (Assay),6 month,99.2%
same,Purity (% Area),6 month,95.03%
same,Unknown Impurities RRT~0.29,6 month,0.22%
same,Unknown Impurities RRT~0.42,6 month,1.29%
same,Unknown Impurities RRT~0.49,6 month,0.80%
same,Unknown Impurities RRT~0.59,6 month,0.32%
same,Unknown Impurities RRT~0.73,6 month,0.82%
same,Unknown Impurities RRT~1.82,6 month,"ND (ND = Not Detected, or <0.05%)"
same,Unknown Impurities RRT~2.85,6 month,0.15%
same,Unknown Impurities RRT~3.00,6 month,0.07%
same,Unknown Impurities RRT~3.15,6 month,"ND (ND = Not Detected, or <0.05%)"
same,Unknown Impurities RRT~3.30,6 month,0.05%
same,Unknown Impurities RRT~3.45,6 month,"ND (ND = Not Detected, or <0.05%)"
same,Unknown Impurities RRT~3.74,6 month,0.69%
same,Unknown Impurities RRT~4.27,6 month,0.08%
same,Unknown Impurities RRT~4.99,6 month,0.36%
same,pH,6 month,8.93
same,Potency (Assay),9 month,100.3%
same,Purity (% Area),9 month,93.82%
same,Unknown Impurities RRT~0.29,9 month,0.15%
same,Unknown Impurities RRT~0.42,9 month,1.88%
same,Unknown Impurities RRT~0.49,9 month,0.84%
same,Unknown Impurities RRT~0.59,9 month,0.32%
same,Unknown Impurities RRT~0.73,9 month,0.43%
same,Unknown Impurities RRT~1.82,9 month,0.05%
same,Unknown Impurities RRT~2.85,9 month,0.32%
same,Unknown Impurities RRT~3.00,9 month,"ND (ND = Not Detected, or <0.05%)"
same,Unknown Impurities RRT~3.15,9 month,0.07%
same,Unknown Impurities RRT~3.30,9 month,0.10%
same,Unknown Impurities RRT~3.45,9 month,0.06%
same,Unknown Impurities RRT~3.74,9 month,0.88%
same,Unknown Impurities RRT~4.27,9 month,0.13%
same,Unknown Impurities RRT~4.99,9 month,0.66%
same,pH,9 month,9.08
same,Potency (Assay),12 month,98.4%
same,Purity (% Area),12 month,92.23%
same,Unknown Impurities RRT~0.29,12 month,0.14%
same,Unknown Impurities RRT~0.42,12 month,2.20%
same,Unknown Impurities RRT~0.49,12 month,0.86%
same,Unknown Impurities RRT~0.59,12 month,0.32%
same,Unknown Impurities RRT~0.73,12 month,0.97%
same,Unknown Impurities RRT~1.82,12 month,0.06%
same,Unknown Impurities RRT~2.85,12 month,0.37%
same,Unknown Impurities RRT~3.00,12 month,0.06%
same,Unknown Impurities RRT~3.15,12 month,0.06%
same,Unknown Impurities RRT~3.30,12 month,0.12%
same,Unknown Impurities RRT~3.45,12 month,0.05%
same,Unknown Impurities RRT~3.74,12 month,1.07%
same,Unknown Impurities RRT~4.27,12 month,0.15%
same,Unknown Impurities RRT~4.99,12 month,1.02%
same,pH,12 month,9.07
same,Potency (Assay),Initial,100.3%
same,Purity (% Area),Initial,98.04%
same,Unknown Impurities RRT~0.29,Initial,0.11%
same,Unknown Impurities RRT~0.42,Initial,"ND (ND = Not Detected, or <0.05%)"
same,Unknown Impurities RRT~0.49,Initial,0.62%
same,Unknown Impurities RRT~0.59,Initial,"ND (ND = Not Detected, or <0.05%)"
same,Unknown Impurities RRT~0.73,Initial,1.05%
same,Unknown Impurities RRT~1.82,Initial,"ND (ND = Not Detected, or <0.05%)"
same,Unknown Impurities RRT~2.85,Initial,"ND (ND = Not Detected, or <0.05%)"
same,Unknown Impurities RRT~3.00,Initial,"ND (ND = Not Detected, or <0.05%)"
same,Unknown Impurities RRT~3.15,Initial,"ND (ND = Not Detected, or <0.05%)"
same,Unknown Impurities RRT~3.30,Initial,"ND (ND = Not Detected, or <0.05%)"
same,Unknown Impurities RRT~3.45,Initial,"ND (ND = Not Detected, or <0.05%)"
same,Unknown Impurities RRT~3.74,Initial,"ND (ND = Not Detected, or <0.05%)"
same,Unknown Impurities RRT~4.27,Initial,"ND (ND = Not Detected, or <0.05%)"
same,Unknown Impurities RRT~4.99,Initial,"ND (ND = Not Detected, or <0.05%)"
same,pH,Initial,8.60
